Consider two compounds from ChEMBL document CHEMBL2073919, “cDNA cloning and functional characterization of rat intestinal monocarboxylate transporter” (Biochem Biophys Res Commun, 1995).

This test addresses T1, Monocarboxylate transporter 1 (Rattus norvegicus) (UniProt P53987).
T1 sequence (whole entry): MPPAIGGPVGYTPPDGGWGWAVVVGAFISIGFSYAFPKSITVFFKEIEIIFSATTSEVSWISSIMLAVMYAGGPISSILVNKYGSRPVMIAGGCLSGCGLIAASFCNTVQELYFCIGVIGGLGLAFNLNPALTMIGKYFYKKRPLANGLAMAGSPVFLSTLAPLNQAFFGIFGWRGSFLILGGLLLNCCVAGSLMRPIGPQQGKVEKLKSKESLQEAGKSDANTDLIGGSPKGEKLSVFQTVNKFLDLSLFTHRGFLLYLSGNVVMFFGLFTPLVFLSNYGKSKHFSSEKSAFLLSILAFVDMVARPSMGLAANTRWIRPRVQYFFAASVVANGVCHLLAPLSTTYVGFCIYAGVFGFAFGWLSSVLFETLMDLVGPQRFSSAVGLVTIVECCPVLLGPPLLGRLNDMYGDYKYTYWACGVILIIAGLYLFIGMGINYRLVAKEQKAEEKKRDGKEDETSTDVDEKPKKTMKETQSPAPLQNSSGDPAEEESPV
The test can be described thus: TP_TRANSPORTER: uptake in Xenopus laevis oocytes. In kind it is functional, cell-based. Conditions: Oocyte.

Regarding `C[C@@H](O)C(=O)O`, the Activity entry is “substrate [+]”. Consider `C[C@H](O)C(=O)O`, for which the Activity entry is “substrate [+]”.
